Where “and” joins values, the source holds several entries; their conditions need not be identical. Identical values can stand only once. Like-named read-outs stand apart in the source and are kept apart here.
Columns and labels:
[1] = test system: lab-grown Chlamydomonas reinhardtii; assay: Toxic agent detection by fluorescence induction, lab-grown Chlamydomonas reinhardtii samples; assay type: cell-based
Protocol: (§1) Fluorescence induction data set of normal primary-source drinking water samples as well as samples exposed to four different toxic agents at different concentrations were collected. The control and toxic-agent-exposed fluorescence induction data were taken every 5 minutes after the dark adaptation for 15 minutes. • 20 μM DCMU, • 5 mM/10 mM KCN, • 40 μM/60 μM MPt, and • 225 μM Paraquat. Experiment 1—Toxic Agent Detection
(§2) The objective of the first experiment performed was to evaluate the performance of the inventive methodology in detecting the presence of toxic agents. FIGS. 12-23 show the extracted features (including PSII, amplitude statistics, and wavelet coefficient statistical features) of each specific toxic agent as functions of time. The toxic agents were added into the samples at time 0, therefore, the signals with negative time index correspond to the control data and the signals during the positive time period are the agent-exposed data collected from either the Clinch River samples or the lab-grown Chlamydomonas reinhardtii samples. At each time moment, three samples were collected and feature values calculated. The mean and standard deviation of these three values are used to illustrate the performance curve at that time moment. To examine the change of feature values over time, the signal collected at time 0 as reference was chosen and yield at each time moment calculated (feature at time t−feature at time 0)/feature at time 0. The following notations are used to describe these performance curves: • μc(t), σc(t): the mean and the standard deviation of the feature values derived from the three control samples collected at moment t (with a negative time index) • μe(t), σe(t): the mean and the standard deviation of the feature values derived from the three exposure samples collected at moment t (with a positive time index)
(§3) In order to quantitatively evaluate the effectiveness of each feature in differentiating between the control and the exposure signals of different toxic agents, two metrics are introduced: the Fisher criterion and the average confidence level. The Fisher criterion originates from pattern classification (Duda, et al., 2001) where a linear projection is pursued in order to best separate two classes. In this work, the definition of Fisher criterion is used to quantify different performance curves in differentiating between the control and the exposure signals. In general, the Fisher criterion looks for the feature that maximizes the difference between the mean value of feature derived from the control and the exposed signal while minimizing the variance among them, as formulated below: […]
(§4) Table 1 lists the value of the Fisher criterion to evaluate the effect of using different features for agent detection. In both Table 1 and Table 2 “Clinch” refers to Clinch River samples and “Chlamy” to lab-grown Chlamydomonas reinhardtii samples. It can be seen from Table 1 below that the first-order amplitude statistics (mean) gives the best metric evaluation for most of the toxic agents, while the wavelet analysis, the standard deviation and the skewness in amplitude statistics also contribute to the differentiation between control and exposure signals in some cases.

[2] = test system: Clinch River samples (naturally-occurring photosynthetic organisms); assay: Toxic agent detection by fluorescence induction, Clinch River samples; assay type: cell-based
Protocol: as §1, §2, §3, §4

## C[n+]1ccc(-c2cc[n+](C)cc2)cc1 [Paraquat]
[1]; Chlamy, 225 μM Paraquat
  Fisher criterion (control vs exposure signals), Amplitude Statistics Kurtosis: 0.5380
  Fisher criterion (control vs exposure signals), Amplitude Statistics Mean: 9.2416
  Fisher criterion (control vs exposure signals), Amplitude Statistics Skewness: 0.1661
  Fisher criterion (control vs exposure signals), PSII: 33.4259
  Fisher criterion (control vs exposure signals), Wavelet Coefficient Energy: 15.7150
  Fisher criterion (control vs exposure signals), Wavelet Coefficient Mean: 7.4516
[2]; Clinch, 225 μM Paraquat
  Fisher criterion (control vs exposure signals), Amplitude Statistics Kurtosis: 13.0980
  Fisher criterion (control vs exposure signals), Amplitude Statistics Mean: 0.6992
  Fisher criterion (control vs exposure signals), Amplitude Statistics Skewness: 21.8997
  Fisher criterion (control vs exposure signals), PSII: 40.3550
  Fisher criterion (control vs exposure signals), Wavelet Coefficient Energy: 121.8164
  Fisher criterion (control vs exposure signals), Wavelet Coefficient Mean: 88.1866

## COP(=S)(OC)Oc1ccc([N+](=O)[O-])cc1 [MPt, methyl parathion]
[1]
  Fisher criterion (control vs exposure signals), Amplitude Statistics Mean: 15.3435 and 20.3104
  Fisher criterion (control vs exposure signals), PSII: 7.8844 and 11.7760
  Fisher criterion (control vs exposure signals), Wavelet Coefficient Energy: 29.3503 and 29.5307
  Fisher criterion (control vs exposure signals), Wavelet Coefficient Mean: 15.7935 and 22.2547
[2]
  Fisher criterion (control vs exposure signals), Amplitude Statistics Mean: 9.9401 and 5.1574
  Fisher criterion (control vs exposure signals), Wavelet Coefficient Energy: 258.6794 and 159.3636
  Fisher criterion (control vs exposure signals), Wavelet Coefficient Mean: 148.3582 and 75.2339

## CN(C)C(=O)Nc1ccc(Cl)c(Cl)c1 [DCMU, Diuron]
[1]; Chlamy, 20 μM DCMU
  Fisher criterion (control vs exposure signals), Amplitude Statistics Kurtosis: 242.9
  Fisher criterion (control vs exposure signals), Amplitude Statistics Mean: 2111.9
  Fisher criterion (control vs exposure signals), Amplitude Statistics Skewness: 835.9
  Fisher criterion (control vs exposure signals), PSII: 63.9
  Fisher criterion (control vs exposure signals), Wavelet Coefficient Energy: 8.2
  Fisher criterion (control vs exposure signals), Wavelet Coefficient Mean: 5.3
[2]; Clinch, 20 μM DCMU
  Fisher criterion (control vs exposure signals), Amplitude Statistics Kurtosis: 71.3140
  Fisher criterion (control vs exposure signals), Amplitude Statistics Mean: 356.4241
  Fisher criterion (control vs exposure signals), Amplitude Statistics Skewness: 64.7360
  Fisher criterion (control vs exposure signals), PSII: 62.8073
  Fisher criterion (control vs exposure signals), Wavelet Coefficient Energy: 93.8024
  Fisher criterion (control vs exposure signals), Wavelet Coefficient Mean: 37.3350
